According to patent US20230219995A1, “FLUORESCENT CYTOSINE ANALOGUES AND THEIR APPLICATION IN TRANSCRIPTION AND TRANSLATION” (STEALTH LABELS BIOTECH AB, priority 2020, published 2023):

What was measured:
T7 RNA polymerase = target: T1, T7 RNA polymerase (Escherichia phage T7, UniProt P00573); experiment: Cell-free in vitro transcription with T7 RNA polymerase (tC^O TP/CTP ratios 0-100%); format: biochemical, bacteriophage
T1 construct: purchased Thermo Scientific

[1] = Steady state absorption, emission and fluorescence quantum yield of tC^O-modified RNA transcripts; format: physicochemical; conditions: free triphosphate
Procedure: A spectroscopic approach was used to quantify the incorporation efficiency of tC^O TP, compared to the canonical CTP. To enable this, all RNA transcripts were purified using a Monarch RNA Cleanup kit, ensuring complete removal of unreacted tC^O TP.
The tC^O-RNA products from the cell-free transcription reactions (prior to polyadenylation and capping, see Methods: Bio for details) were measured as received, i.e. in RNAse free Milli Q water. All measurements were carried out at room temperature (ca. 22° C.) in a 3.0 mm path length quartz cuvette, with a sample volume of ca. 60 μL.
Absorption spectra were recorded on a Cary 5000 (Varian Technologies) spectrophotometer with a wavelength interval of 1.0 nm, integration time of 0.1 s, and a spectral band width (SBW) of 1 nm. All spectra were baseline corrected by subtracting the corresponding absorption from the solvent only. A second-order polynomial Savitzky-Golay (five points) smoothing filter was applied to all spectra. […]
Emission spectra were recorded on a SPEX Fluorolog (Jobin Yvon Horiba) fluorimeter with excitation at 356 nm. […]
Sample fluorescence quantum yields (ΦF) were determined relative to a solution of quinine sulphate (Sigma) in 0.5 M H2SO4 (ΦF,REF=0.546) and calculated according to equation S2. […]

SP6 RNA polymerase = target: T2, SP6 RNA polymerase (Enterobacteria phage SP6, UniProt P06221); experiment: Cell-free in vitro transcription with SP6 RNA polymerase (tC^O TP/CTP ratios 0-100%); format: biochemical, bacteriophage; conditions: tC^O TP/canonical CTP ratios 0 to 100%, agarose bleach gel
T2 construct: purchased Thermo Scientific
T2 sequence (P06221 1-874): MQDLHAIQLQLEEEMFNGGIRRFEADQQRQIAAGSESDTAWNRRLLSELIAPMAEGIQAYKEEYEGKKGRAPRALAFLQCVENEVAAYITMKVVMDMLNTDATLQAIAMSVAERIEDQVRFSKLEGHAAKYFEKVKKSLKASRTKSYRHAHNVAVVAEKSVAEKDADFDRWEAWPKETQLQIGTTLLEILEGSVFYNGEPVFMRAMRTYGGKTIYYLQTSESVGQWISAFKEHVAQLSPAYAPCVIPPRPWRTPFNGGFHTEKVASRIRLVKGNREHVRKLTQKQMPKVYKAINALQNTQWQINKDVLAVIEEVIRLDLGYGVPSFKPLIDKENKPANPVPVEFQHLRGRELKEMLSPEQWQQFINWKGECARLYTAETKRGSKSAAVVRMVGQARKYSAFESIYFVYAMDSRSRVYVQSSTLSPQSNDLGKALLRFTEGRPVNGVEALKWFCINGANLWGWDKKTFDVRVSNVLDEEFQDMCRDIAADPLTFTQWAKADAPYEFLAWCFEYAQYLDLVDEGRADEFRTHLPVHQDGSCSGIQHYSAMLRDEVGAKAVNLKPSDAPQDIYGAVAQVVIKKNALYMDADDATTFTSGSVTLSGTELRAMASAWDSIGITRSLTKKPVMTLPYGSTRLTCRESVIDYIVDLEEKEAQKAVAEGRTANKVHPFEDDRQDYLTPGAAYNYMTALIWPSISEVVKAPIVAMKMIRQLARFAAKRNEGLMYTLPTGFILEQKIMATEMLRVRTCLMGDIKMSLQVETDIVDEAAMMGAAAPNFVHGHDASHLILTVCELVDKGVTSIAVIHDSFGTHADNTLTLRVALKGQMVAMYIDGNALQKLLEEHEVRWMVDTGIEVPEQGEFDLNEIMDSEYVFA

T1 sequence (P00573 whole entry): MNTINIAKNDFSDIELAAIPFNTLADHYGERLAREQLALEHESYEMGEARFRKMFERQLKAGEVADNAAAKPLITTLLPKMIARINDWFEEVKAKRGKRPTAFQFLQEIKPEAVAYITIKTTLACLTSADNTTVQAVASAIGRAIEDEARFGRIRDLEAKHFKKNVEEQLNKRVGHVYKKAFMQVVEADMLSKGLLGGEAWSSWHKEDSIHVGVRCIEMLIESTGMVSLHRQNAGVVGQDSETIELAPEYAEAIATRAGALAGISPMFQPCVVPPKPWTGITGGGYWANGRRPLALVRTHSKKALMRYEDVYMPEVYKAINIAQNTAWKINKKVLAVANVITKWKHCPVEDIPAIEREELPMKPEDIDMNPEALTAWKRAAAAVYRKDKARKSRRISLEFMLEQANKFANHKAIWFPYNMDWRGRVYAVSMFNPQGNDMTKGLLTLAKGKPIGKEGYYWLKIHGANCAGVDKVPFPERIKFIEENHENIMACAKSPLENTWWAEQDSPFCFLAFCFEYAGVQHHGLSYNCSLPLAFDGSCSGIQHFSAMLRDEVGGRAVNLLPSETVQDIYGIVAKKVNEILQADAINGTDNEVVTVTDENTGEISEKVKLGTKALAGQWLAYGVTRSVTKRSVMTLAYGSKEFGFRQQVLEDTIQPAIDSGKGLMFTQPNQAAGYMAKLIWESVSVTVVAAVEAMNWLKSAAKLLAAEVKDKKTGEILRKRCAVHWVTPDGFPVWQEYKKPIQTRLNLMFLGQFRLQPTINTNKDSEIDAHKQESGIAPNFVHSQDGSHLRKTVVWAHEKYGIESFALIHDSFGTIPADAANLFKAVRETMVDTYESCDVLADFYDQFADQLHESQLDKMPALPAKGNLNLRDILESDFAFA

((2R,3S,4R,5R)-3,4-dihydroxy-5-(2-oxo-2,10-dihydro-3H-benzo[b]pyrimido[4,5-e][1,4]oxazin-3-yl)tetrahydrofuran-2-yl)methyl triphosphate [tC^O TP]
kC/ktC^O, ratio of first-order rate constants for incorporation of CTP vs. tC^O TP (T7 RNA polymerase; calculated from absorption at 260 nm and 370 nm of purified transcripts): 0.96-1.4
transcription and tC^O incorporation into full-length H2B:GFP mRNA (T7 RNA polymerase; tC^O TP/canonical CTP ratios 0 to 100%, agarose bleach gel): Efficient transcription and tC^O incorporation
tC^O-band absorption λmax [1]: 360 nm
transcription and tC^O incorporation into full-length H2B:GFP mRNA (SP6 RNA polymerase): Efficient transcription and tC^O incorporation
